By viability is commonly meant a read-out of living cells in per cent, often relative to untreated cells. A word on the LD50: it is the dose expected to kill half of the subjects tested. A low value points to greater toxicity.

The source of these data is patent publication US5880146A, “Inhibition of IL-12-induced IFN-γ synthesis by specific bis-phenol compounds as a method of immune modulation” (Fuji ImmunoPharmaceuticals Corporation, priority 1995, dated 1999).

The structures appear in SMILES notation.

Data set [1] in a line: Cell viability (MTS) after treatment with bis-compound. The class given is cell-based. As to conditions: human, pha-activated pbmc, 5 μg/ml. As for the experimental part:
Human peripheral blood monocytes (PBMC) were obtained from commercial sources as a leukophoresis from a healthy volunteer and were purified by centrifugation on a Ficoll-Hypaque (Pharmacia) gradient (1700 rpm for 20 min). The "buffy" coat containing the PBMC was diluted with serum-free culture medium (SF-RPMI) to a volume of 50 ml and collected by centrifugation at 1500 rpm for 5 min. Cells were resuspended in cell culture medium containing 10% fetal bovine serum (RPMI-10) and phytohemaglutinin (PHA - 10 μg/ml) at a density of 5×10^6 cells/ml and were cultured for 3 days at 37° C. in a humidified CO2 incubator. The PHA-activated cells were collected by centrifugation, washed three times with an equal volume of SF-RPMI and resuspended in fresh RPMI-10 (1×10^6 cells /ml). Aliquots (100 μl) were dispensed into the wells of multiple 96-well plates to give a final cell number of 10^5 per well. Test compounds, dissolved in dimethyl sulfoxide (DMSO) at 1 mg/ml, were first diluted in culture medium to an intermediate concentration of 20 μg/ml and then were added (50 μwell) to a specific well of the plate for each compound. Stimulation medium (50 μl/well) containing 10% serum, IL-2 and IL-12 was added to final concentrations of 25 U/ml and 0.5 ng/ml, respectively. Control wells receive no IL-2 or IL-12 (negative control) or received both interleukins but no test compound (positive control). The plates were incubated for 48 hr at 37° C. in a CO2 incubator at which time aliquots (20 μl) were removed for analysis of IFN-γ concentration by ELISA. A quantitative ELISA was developed by coating 96-well plates with an mouse monoclonal antibody against human IFN-γ, 1 μg/ml in phosphate buffered saline (PBS) (Pestka Biological Laboratories), overnight at 4° C. Unbound antibody was washed off by washing three times with PBS. Non-specific antibody binding was blocked with a solution of 1% bovine serum albumin (BSA) and 1% goat serum in PBS (150 μl/well) which was incubated for 2 hr at 37° C. After washing the blocked plates four times with PBS, test samples and dilutions of the IFN-γ standard are added in a final volume of 100 μl/well. Following an overnight incubation at 4° C., the plates are washed four times with PBS, and a polyclonal rabbit antiserum against human IFN-γ (1/10000 dilution--Petska Biological Laboratories) is added. After an additional incubation for 1 hr at 37° C. and four washes with PBS, a polyclonal donkey anti-rabbit detecting antibody, conjugated to horseradish peroxidase (1/700 dilution--Petska Biological Laboratories) is added for 1 hr at 37° C. The plates are then washed four times with PBS and 100 μl of K-blue substrate E(ILISA Technologies, Neogen Corp.) is added until the color in the wells containing the standard curve is sufficiently developed, at which time 100 μl of "Red-stop" solution (ELISA Technologies) is added. The absorbance of the solution within each well of the plate is then read at 650 nm using an ELISA plate reader (Dynatech MR7000). The amount of IFN-γ is calculated by comparing the optical density of the test sample with a standard curve derived from the dilutions of the control IFN-y. […] MTS is a chemical chromophore that is metabolized in the mitochondria of viable cells to produce a color which increases in intensity in proportion to the numbers of viable cells. The absorbance of the cell culture can be compared to control cultures in order to determine the percent viability.

A short description of data set [2]: Toxicity of bis-compounds after single systemic dose. The class given is in vivo. The following applies: mouse, in vivo, iv, 20% DMSO, 16% cremaphor, single dose.
For the next data set, the system named is mice. The data set is described as above. The class given is in vivo. As to conditions: 20% DMSO, 16% cremaphor.

For the compound `CCCCCCCC(c1cc(C)cc(C)c1O)c1cc(C)cc(C)c1O` [Compound 51852], in data set [1], the viability is 105%.

`Cc1cc(C)c(O)c(C(CC(C)CC(C)(C)C)c2cc(C)cc(C)c2O)c1` (centres unmarked) [Compound 51853, bis-1,1-[2-hydroxy-3,5-dimethylphenyl]-3,5,5-dimethyl hexan]: the viability in data set [1] is 104%. The LD50 is 100 to 150 mg/kg in data set [2] (conc. sol. 10 mg/ml) and > 200 mg/kg in data set [2] (conc. sol. 15 mg/ml). Further, the “Results (Dead/Alive)” value is given as “Alive” in the data set on mice (100 mg/kg IV, 10 mg/ml); “Dead” with mice (150 mg/kg IV, 10 mg/ml); “Alive” in the data set on mice (150 mg/kg IV, 15 mg/ml); “Alive” with mice (200 mg/kg IV, 15 mg/ml).
